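Tested at 5 concentrations; 48 h exposure; 96-well plates; endpoints linearly interpolated, else capped at highest concentration. GI50 marks 50% less growth.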 Activity calls are given as the source filed them. Rule as the data show it: active = GI50 up to about 1.1 µM and inactive = higher.
Tests used:
Experiment in all cases: NCI tumour cell line growth inhibition, 48 h
[1] = test system: COLO 205
[2] = test system: UACC-62
[3] = test system: TK-10
[4] = test system: OVCAR-5
[5] = test system: SK-MEL-28
[6] = test system: UACC-257
[7] = test system: UO-31
[8] = test system: SF-295
[9] = test system: SNB-19
[10] = test system: SN12C
[11] = test system: NCI-H226
[12] = test system: U-251
[13] = test system: Malme-3M
[14] = test system: OVCAR-4
[15] = test system: SNB-75
[16] = test system: SK-MEL-5
[17] = test system: K562

| Compound | GI50 [1] | GI50 [2] | GI50 [3] | GI50 [4] | GI50 [5] | GI50 [6] | GI50 [7] | GI50 [8] | GI50 [9] | GI50 [10] | GI50 [11] | GI50 [12] | GI50 [13] | GI50 [14] | GI50 [15] | GI50 [16] | GI50 [17] |
| --- | --- | --- | --- | --- | --- | --- | --- | --- | --- | --- | --- | --- | --- | --- | --- | --- | --- |
| O=C(/C=C/c1ccccc1O)c1cccs1 | > 100 µM (inactive) | > 100 µM (inactive) | > 100 µM (inactive) | > 100 µM (inactive) | > 100 µM (inactive) | > 100 µM (inactive) | > 100 µM (inactive) | > 100 µM (inactive) | > 100 µM (inactive) | > 100 µM (inactive) | > 100 µM (inactive) | > 100 µM (inactive) | > 100 µM (inactive) | > 100 µM (inactive) | > 100 µM (inactive) | > 100 µM (inactive) | > 100 µM (inactive) |
| Cc1nc(-c2nc([N+](=O)[O-])c([N+](=O)[O-])[nH]2)cs1 | > 100 µM (inactive) | > 100 µM (inactive) | > 100 µM (inactive) | > 100 µM (inactive) | > 100 µM (inactive) | > 100 µM (inactive) | > 100 µM (inactive) | > 100 µM (inactive) | > 100 µM (inactive) | > 100 µM (inactive) | > 100 µM (inactive) | > 100 µM (inactive) | > 100 µM (inactive) | > 100 µM (inactive) | > 100 µM (inactive) | > 100 µM (inactive) | > 100 µM (inactive) |
| O=C(O)C1Cc2[nH]c3ccccc3c2C2CCCC12 (stereo not drawn) | > 100 µM (inactive) | > 100 µM (inactive) | > 100 µM (inactive) | > 100 µM (inactive) | > 100 µM (inactive) | > 100 µM (inactive) | > 100 µM (inactive) | > 100 µM (inactive) | > 100 µM (inactive) | > 100 µM (inactive) | 5.15 µM (inactive) | > 100 µM (inactive) | > 100 µM (inactive) | > 100 µM (inactive) | 46.3 µM (inactive) | > 100 µM (inactive) | > 100 µM (inactive) |
| N=c1oc2cc(O)c(O)cc2cc1C(N)=O | > 100 µM (inactive) | > 100 µM (inactive) | > 100 µM (inactive) | > 100 µM (inactive) | > 100 µM (inactive) | > 100 µM (inactive) | > 100 µM (inactive) | > 100 µM (inactive) | > 100 µM (inactive) | > 100 µM (inactive) | > 100 µM (inactive) | > 100 µM (inactive) | > 100 µM (inactive) | > 100 µM (inactive) | 25 µM (inactive) | > 100 µM (inactive) | > 100 µM (inactive) |
| Oc1cccc2nc3cc(CN4CCOCC4)c(CN4CCOCC4)cc3nc12 | 56.9 µM (inactive) | 40.2 µM (inactive) | > 100 µM (inactive) | 43.8 µM (inactive) | > 100 µM (inactive) | > 100 µM (inactive) | 29.6 µM (inactive) | 45.8 µM (inactive) | > 100 µM (inactive) | 79.3 µM (inactive) | 68.7 µM (inactive) | 33.6 µM (inactive) | 57.5 µM (inactive) | 67.3 µM (inactive) | > 100 µM (inactive) | 24.4 µM (inactive) | 34.3 µM (inactive) |
| CN(C)/C(=N\C#N)N(Cc1ccccc1)Cc1ccccc1 | 74 µM (inactive) | 62.4 µM (inactive) | > 100 µM (inactive) | > 100 µM (inactive) | > 100 µM (inactive) | > 100 µM (inactive) | 80.5 µM (inactive) | 68.4 µM (inactive) | > 100 µM (inactive) | > 100 µM (inactive) | > 100 µM (inactive) | > 100 µM (inactive) | > 100 µM (inactive) | > 100 µM (inactive) | > 100 µM (inactive) | > 100 µM (inactive) | 17.9 µM (inactive) |
| NC(=O)c1csc(CCCCCCc2nc(C(N)=O)cs2)n1 | > 59.3 µM (inactive) | > 100 µM (inactive) | > 100 µM (inactive) | > 100 µM (inactive) | > 100 µM (inactive) | > 62.5 µM (inactive) | > 100 µM (inactive) | > 100 µM (inactive) | > 100 µM (inactive) | > 100 µM (inactive) | > 100 µM (inactive) | > 42.5 µM (inactive) | > 100 µM (inactive) | > 57.7 µM (inactive) | > 100 µM (inactive) | > 100 µM (inactive) | > 39.1 µM (inactive) |
| CNC(C)Cc1ccc(O)cc1 (stereo not drawn) | > 100 µM (inactive) | > 100 µM (inactive) | > 100 µM (inactive) | > 100 µM (inactive) | > 100 µM (inactive) | > 100 µM (inactive) | > 100 µM (inactive) | > 100 µM (inactive) | > 100 µM (inactive) | > 100 µM (inactive) | > 100 µM (inactive) | > 100 µM (inactive) | > 100 µM (inactive) | > 100 µM (inactive) | > 100 µM (inactive) | > 100 µM (inactive) | > 100 µM (inactive) |
| O=C1NN=C(c2ccc([N+](=O)[O-])cc2)C1n1nc(-c2ccccc2)c2ccccc2c1=O (stereo not drawn) | > 60.8 µM (inactive) | > 100 µM (inactive) | > 100 µM (inactive) | > 100 µM (inactive) | > 100 µM (inactive) | > 100 µM (inactive) | > 100 µM (inactive) | > 100 µM (inactive) | > 100 µM (inactive) | > 100 µM (inactive) | > 100 µM (inactive) | > 95.7 µM (inactive) | > 100 µM (inactive) | > 100 µM (inactive) | > 95.5 µM (inactive) | > 100 µM (inactive) | > 54.5 µM (inactive) |
| c1ccc(N2N=C(c3ccco3)CC2c2ccco2)cc1 (stereo not drawn) | > 100 µM (inactive) | 91.6 µM (inactive) | > 100 µM (inactive) | > 100 µM (inactive) | > 100 µM (inactive) | – | 28.6 µM (inactive) | 57.1 µM (inactive) | > 100 µM (inactive) | > 100 µM (inactive) | 66.8 µM (inactive) | > 100 µM (inactive) | > 100 µM (inactive) | > 100 µM (inactive) | 22.3 µM (inactive) | 51.4 µM (inactive) | 34.3 µM (inactive) |
| C#C[C@H]1CCCCCC1O (stereo partly drawn) | > 100 µM (inactive) | > 100 µM (inactive) | > 100 µM (inactive) | > 100 µM (inactive) | > 100 µM (inactive) | > 100 µM (inactive) | > 100 µM (inactive) | > 100 µM (inactive) | > 100 µM (inactive) | > 100 µM (inactive) | > 100 µM (inactive) | > 100 µM (inactive) | 65.6 µM (inactive) | > 100 µM (inactive) | > 100 µM (inactive) | > 100 µM (inactive) | > 100 µM (inactive) |
| COc1cc([C@@H]2c3cc4c(cc3[C@@H](NC(=O)c3cccc(N)c3)C3COC(=O)[C@@H]32)OCO4)cc(OC)c1O (stereo partly drawn) | 11 µM (inactive) | 0.619 µM (active) | 3.31 µM (inactive) | 2.58 µM (inactive) | 8.63 µM (inactive) | 10.7 µM (inactive) | 9.06 µM (inactive) | 0.262 µM (active) | 0.569 µM (active) | 0.445 µM (active) | 0.236 µM (active) | 0.242 µM (active) | 0.942 µM (active) | 17.4 µM (inactive) | 1.48 µM (inactive) | 1.66 µM (inactive) | 2.11 µM (inactive) |

— ChEMBL document CHEMBL1201862, “PubChem BioAssay data set” (2004)
